Measured values taken from US6914064B2, “1,4-Disubstituted piperazine derivatives useful as uro-selective α1-adrenoceptor blockers” (Ranbaxy Laboratories Limited, priority 2000, dated 2005).
pKi: −log10 of the molar value.

Tests used:
[1] = target: T1, α1A adrenoceptor (Rattus norvegicus, UniProt P43140); assay: Receptor binding assay, displacement of [3H]prazosin, rat submaxillary membranes; details: for pKi: [3H]prazosin displacement, rat submaxillary membranes, read-out: α1A (Rat submaxillary) Ki; for Selectivity α1B/α1A: ratio of Ki α1B (rat liver) / α1A (rat submaxillary)
T1 construct: from tissue; host or cells: rat submaxillary gland membranes
T1 sequence (P43140 1-466): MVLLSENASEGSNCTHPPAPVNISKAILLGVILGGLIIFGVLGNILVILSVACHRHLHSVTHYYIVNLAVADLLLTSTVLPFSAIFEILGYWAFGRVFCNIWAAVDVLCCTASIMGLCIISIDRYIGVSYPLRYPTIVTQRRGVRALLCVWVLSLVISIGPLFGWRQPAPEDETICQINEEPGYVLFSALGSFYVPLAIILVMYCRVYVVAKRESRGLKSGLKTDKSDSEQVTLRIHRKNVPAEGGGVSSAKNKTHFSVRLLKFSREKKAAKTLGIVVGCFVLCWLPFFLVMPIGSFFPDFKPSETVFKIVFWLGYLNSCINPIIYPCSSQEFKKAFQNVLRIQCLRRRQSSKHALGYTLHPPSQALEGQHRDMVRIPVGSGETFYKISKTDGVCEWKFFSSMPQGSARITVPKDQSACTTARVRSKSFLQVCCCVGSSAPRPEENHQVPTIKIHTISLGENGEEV
In short: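 Rat submaxillary gland membranes (150-250 μg protein) incubated 1 h at 24-25° C in Tris HCl 50 mM, EDTA 5 mM, pH 7.4. Non-specific binding set with 300 nM prazosin; filtration then counting of bound radioactivity. IC50 and Kd from non-linear curve fitting.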

[2] = target: T2, α1D adrenoceptor (aorta) (Rattus norvegicus, UniProt P23944); assay: In vitro functional study, antagonism of norepinephrine-induced contraction of aorta; type: biochemical; details: tested compound at 0.1, 1 and 10 mM, read-out: α Adrenoceptor Subtype (pKB) α1D (converted)
T2 construct: Isolated tissues were mounted in organ bath containing Krebs Henseleit buffer; from tissue; host or cells: isolated aorta of male wistar rats
T2 sequence (P23944 1-561): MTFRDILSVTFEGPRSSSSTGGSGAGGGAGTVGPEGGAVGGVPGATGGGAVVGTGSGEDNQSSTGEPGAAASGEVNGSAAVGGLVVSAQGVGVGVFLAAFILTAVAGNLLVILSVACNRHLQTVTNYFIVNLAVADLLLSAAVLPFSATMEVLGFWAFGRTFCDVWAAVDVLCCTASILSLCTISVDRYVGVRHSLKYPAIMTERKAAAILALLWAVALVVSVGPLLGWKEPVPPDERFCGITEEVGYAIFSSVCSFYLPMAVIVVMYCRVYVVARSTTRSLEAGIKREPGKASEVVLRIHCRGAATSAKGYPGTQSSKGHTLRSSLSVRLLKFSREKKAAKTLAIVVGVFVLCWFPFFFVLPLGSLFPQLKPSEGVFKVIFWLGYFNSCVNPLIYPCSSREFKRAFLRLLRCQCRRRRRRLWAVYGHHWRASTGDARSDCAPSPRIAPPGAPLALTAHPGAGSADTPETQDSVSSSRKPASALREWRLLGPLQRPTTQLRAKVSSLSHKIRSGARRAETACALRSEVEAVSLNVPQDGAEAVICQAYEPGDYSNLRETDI
Excerpt: In order to study selectivity of action of these compounds towards different α-adrenoceptor subtypes, the ability of these compounds to antagonise α1-adrenoceptor agonist induced contractile response on aorta (α1Dprostate (α1A and spleen (α1B was studied. Aorta and spleen tissues were isolated from urethane anaesthetised (1.5 gm/kg) male wistar rats. Isolated tissues were mounted in organ bath containing Krebs Henseleit buffer of following composition (mM): NaCl 118; KCl 4.7; CaCl2 2.5; MgSO4. 7H2O 1.2; NaHCO3 25; KH2PO41.2; glucose 11.5. Buffer was maintained at 37° C. and aereated with a mixture of 95% O2 and 5% CO2. A resting tension of 2 g (aorta) or 1 g (spleen and prostate)was applied to tissues. Contractile response was monitored using a force displacement transducer and recorded on chart recorders. Tissues were allowed to equilibrate for 2 hours. At the end of equilibration period, concentration response curves to norepinephrine (aorta) and phenylepinephrine (spleen and prostate) were obtained in absence and presence of tested compound (at concentration of 0.1,1 and 10 mM). Antagonist affinity was calculated and expressed as pKB vales in Table II.

| pKi [1] | Selectivity α1B/α1A [1] | Kb [2] | Compound |
| --- | --- | --- | --- |
| 9.62 | 117 | 0.537 nM | CCCOc1ccccc1N1CCN(CCCN2C(=O)C3CC=CCC3C2=O)CC1.Cl (stereo not drawn) [Compound 24, 2-[3-{4-(2-Propoxyphenyl)piperazin-1-yl}propyl]-3a,4,7,7a-tetrahydro-1H-isoindole-1,3(2H)-dione hydrochloride] |
| 9.89 | 146 | 1.74 nM | CCOc1ccccc1N1CCN(CCCN2C(=O)C3CC=CCC3C2=O)CC1.Cl (stereo not drawn) [Compound 11, 2-[3-{4-(2-Ethoxyphenyl)piperazin-1-yl}propyl]-3a,4,7,7a-tetrahydro-1H-isoindole-1,3(2H)-dione hydrochloride] |
| 9.80 | 175 | 0.123 nM | CC(C)Oc1ccccc1N1CCN(CCCN2C(=O)C3CC=CCC3C2=O)CC1.Cl (stereo not drawn) [Compound 23, 2-[3-{4-(2-Isopropoxyphenyl)piperazin-1-yl}propyl]-3a,4,7,7a-tetrahydro-1H-isoindole-1,3(2H)-dione hydrochloride] |
| 9.10 | 91 | 2.29 nM | COc1ccccc1N1CCN(CCCN2C(=O)C3CC=CCC3C2=O)CC1.Cl (stereo not drawn) [Compound 01, 2-[3-{4-(2-Methoxyphenyl)piperazin-1-yl}propyl]-3a,4,7,7a-tetrahydro-1H-isoindole-1,3(2H)-dione hydrochloride] |
